Legend:
Assay type in all cases: in vivo
[1] = system: Culex pipiens pallens; assay: Test Example 10: Culex pipiens pallens larvae in treated water; details: 24 h, active ingredient concentration 3.5 ppm in ion-exchanged water, last-instar larvae, one day later, read-out: death rate
Description: 20 last-instar larvae of Culex pipiens pallens were released into the solution. One day later, the life and death of the Culex pipiens pallens was examined, and the number of dead insects was counted to calculate the death rate. Death rate (%) = (Number of dead insects/Number of tested insects) × 100 [formula]

[2] = system: Nilaparvata lugens; assay: Test Example 4: drench at foot of rice seedling, Nilaparvata lugens larvae released; details: Nilaparvata lugens, soil, 144 h; active ingredient 500 ppm, 5 ml drench at foot of rice seedling, 7 days at 25°C, then third-fourth instar larvae kept 6 days; read-out: control value
[3] = system: Plutella xylostella; assay: Test Example 6: spray on cabbage, Plutella xylostella larvae released; details: 120 h, active ingredient 500 ppm, 20 mL/cup sprayed on cabbage, second instar larvae, 25°C for 5 days, read-out: death rate
Method: On the other hand, on cabbage at the third leaf stage planted in a polyethylene cup was sprayed, at a rate 20 mL/cup, the test drug solution. After the drug solution was dried, the foliage part was cut off, and then placed in a 50 mL volume cup. Five second instar larvae of Plutella xylostella were released into the cup, and the cup was sealed with a lid. After the cup was kept at 25°C for 5 days, the number of dead insects was counted. The death rate was calculated according to the following equation. Death rate (%) = (Number of dead insects/Number of tested insects) × 100 [formula]

[4] = system: Blattella germanica; assay: whole plant or invertebrate; details: 144 h, read-out: death rate
Method: The formulations of Compounds of Present Invention 1-11, 1-19 and 1-23 as obtained in Formulation Example 5 were diluted with water, so as to have a concentration of the active ingredient of 500 ppm, to prepare a test drug solution.
A filter paper having a diameter of 5.5 cm was spread on the bottom of a polyethylene cup having the same diameter and 0.7 ml of the test drug solution was added dropwise onto the filter paper, and 30 mg of sucrose was uniformly placed as bait. Into the polyethylene cup, 2 male imagoes of Blattella germanica were released, and the cup was sealed with a lid. After 6 days, the life and death of Blattella germanica was examined, the number of dead insects was counted, and the death rate was calculated according to the following equation. Death rate (%) = (Number of dead insects/Number of tested insects) × 100 [formula]

[5] = system: Aphis gossypii; assay: Test Example 2: drench at foot of cucumber seedling, later inoculated with Aphis gossypii; details: soil, 144 h, active ingredient 500 ppm, 5 ml drench at foot of cucumber seedling, 7 days at 25°C, then inoculated and kept 6 days, read-out: control value
Method: (§1) On the other hand, a cucumber seedling (the second true leaf stage) planted in a plastic cup was drenched at its foot with 5 ml of the test drug solution, and kept in a greenhouse at 25°C for 7 days. On the cucumber leaf surface was inoculated about 30 Aphis gossypii (whole stage), and further kept in the greenhouse for 6 days, then the number of surviving Aphis gossypii parasitic on the leaves of the cucumber was examined, and the control value was calculated according to the following equation: Control value (%) = {1-(Cb×Tai)/(Cai×Tb)} × 100 [formula] wherein the symbols represent as follows: • Cb: the number of insects in a non-treated section before treatment • Cai: the number of surviving parasitic insects in a non-treated section on observation • Tb: the number of insects in a treated section before treatment • Tai: the number of surviving parasitic insects in a treated section on observation • wherein the non-treated section refers to a section where the test drug solution prepared by diluting the formulation obtained as in Formulation Example 5 but not containing the compound of the present invention with the same amount of water as in the treated section was sprayed.

[6] = system: Aphis gossypii; assay: Test Example 1: foliar spray on cucumber seedling inoculated with Aphis gossypii; details: 144 h, active ingredient 500 ppm, 20 ml sprayed on cucumber seedling, six days after spraying, read-out: control value
Method: as §1, with “hand, on” for “hand,”, “first” for “second”, “inoculated” for “drenched at its foot”, “with” for “with 5 ml of the test drug solution, and kept in a greenhouse at 25°C for 7 days. On the cucumber leaf surface was inoculated”, “left for a day. 20 ml of” for “further kept in”, “test drug solution was sprayed on the seedling. Six days after spraying,” for “greenhouse for 6 days, then”

Row | SMILES | mortality at 3.5 ppm [1] | mortality at 500 ppm [2] | mortality at 500 ppm [3] | mortality at 500 ppm [4] | mortality at 500 ppm [5] | mortality at 500 ppm [6]
1 | CCN(CC)C(=O)c1cnc(-c2nc3cc(C(F)(F)F)cnc3n2C)c(S(=O)(=O)CC)c1 [Compound of Present Invention 1-11, N,N-diethyl-5-ethylsulfonyl-6-(3-methyl-6-trifluoromethyl-3 H-imidazo[4,5-b]pyridin-2-yl)nicotinamide] | ≥ 95% | ≥ 90% | ≥ 80% | 100% | – | –
2 | CCS(=O)(=O)c1cc(C(=O)NC)cnc1-c1nc2cc(C(F)(F)F)cnc2n1C [Compound of Present Invention 1-19] | ≥ 95% | ≥ 90% | – | 100% | ≥ 90% | ≥ 90%

Source: EP2955179A1, “CONDENSED HETEROCYCLIC COMPOUND” (Sumitomo Chemical Company Limited, priority 2013, dated 2014)
